This note sets out measurements from BindingDB's records for doi:10.7270/Q2PG1Q6D (Burnham Center For Chemical Genomics, 2011).

This assay concerns the target T1, Protein Mdm4 (Homo sapiens, UniProt O15151).
T1 sequence (O15151 whole entry): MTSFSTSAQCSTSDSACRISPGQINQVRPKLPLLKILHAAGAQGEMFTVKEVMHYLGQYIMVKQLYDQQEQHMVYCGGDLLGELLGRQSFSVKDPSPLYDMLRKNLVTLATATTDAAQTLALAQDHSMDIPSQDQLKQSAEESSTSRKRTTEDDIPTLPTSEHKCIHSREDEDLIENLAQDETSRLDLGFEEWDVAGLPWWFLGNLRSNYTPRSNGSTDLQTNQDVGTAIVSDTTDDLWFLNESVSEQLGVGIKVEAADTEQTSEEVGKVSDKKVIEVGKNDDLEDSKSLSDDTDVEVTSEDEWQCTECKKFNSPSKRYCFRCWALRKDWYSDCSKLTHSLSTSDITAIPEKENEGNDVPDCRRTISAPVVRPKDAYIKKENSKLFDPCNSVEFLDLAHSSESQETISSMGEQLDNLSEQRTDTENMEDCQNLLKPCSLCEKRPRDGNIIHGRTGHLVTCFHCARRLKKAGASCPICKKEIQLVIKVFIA
The assay can be described thus: disruption of Mdm2/MdmX protein binding – luminescence detection, dose response (AID 504593).

pIC50: −log10 of the molar value.

`Cc1cc(N=NC(C)c2ccccc2O)nc(-c2ccccc2O)n1` (stereo unspecified): the pIC50 (as a rule, −log10 of the IC50, conventionally taken in molar units) was 5.17.
